# Measurements from patent US20030125349A1, “Medicament containing cilansetron for the treatment of non-obstipative male irritable bowel syndrome patients” (Solvay Pharmaceuticals GmbH, priority 2000, published 2003).
# Key:
# [1] = system: non-obstipative IBS patients; details: clinical tests, WO 99/17755, cited from earlier work
# [2] = system: non-obstipative IBS patients; test: 12-week placebo-controlled clinical double-blind study, adequate alleviation of IBS symptoms; type: in vivo, human; details: for Final success rate: all patients (471; both sexes); for Success rate (responder rate, adequate alleviation of IBS symptoms): provisional result (454 patients)
# Text: The effect of cilansetron on non-obstipative IBS patients of both sexes was investigated in a 12-week placebo-controlled clinical double-blind study with randomized selection and parallel test groups. […] Likewise, those patients were included in the study who responded “No” to the question about pain/feeling of unwellness in the lower abdomen only in ≦50% of the cases or who judged their pain/feeling of unwellness in the lower abdomen as “restrictive” for <2 times over a two-week observation period. Cilansetron was used in doses of 1, 2, 8 and 16 mg. The patients were checked weekly for “adequate alleviation” (=primary effectiveness parameter) of their IBS symptoms (stomach pains such as pains in the abdomen, abnormal bowel activity). Stomach pains such as pains in the abdomen, nature of the stools and stool frequency were rated daily by the patients (=secondary effectiveness parameter). In a provisional result of the double-blind study, the data of a total of 454 patients (297 female patients and 157 male patients) were evaluated and plotted in the table below. Corresponding to the criteria on which the clinical double-blind study was based, in both patient subgroups of male IBS patients and female IBS patients the success rates relating to the “adequate alleviation” of the IBS symptoms as set forth in the table below were noted: The “primary effectiveness parameter” corresponds to the success rate (=“responder rate”) to the question, which was put weekly to the patients, as to whether they had experienced “adequate alleviation” of their IBS symptoms (pain/feeling of unwellness in the lower abdomen, abnormal bowel activity) during the course of the previous week. A “responder” is regarded as a patient who was treated for at least four weeks and who responded “Yes” to the question posed of whether “adequate alleviation” of his/her IBS symptoms had occurred for at least half of his/her treatment period. At the end of the double-blind study, the data of a total of 471 patients (308 female patients and 163 male patients) were evaluated. The final success rates were 40% for the placebo group, 62% for the dose 1 mg cilansetron (TID), 53% for the dose 2 mg cilansetron (TID), 55% for the dose 8 mg cilansetron (TID) and 63% for the dose 16 mg cilansetron (TID).
SMILES,Effectiveness on female IBS patients compared with male IBS patients [1],Improvement in condition compared with the placebo group ([1]; male test subjects),"Final success rate ([2]; 1 mg TID, end of study) [%]","Final success rate ([2]; 2 mg TID, end of study) [%]","Final success rate ([2]; 8 mg TID, end of study) [%]","Final success rate ([2]; 16 mg TID, end of study) [%]","Response to treatment of non-obstipative IBS patients of both sexes ([2]; doses 1, 2, 8 and 16 mg)","Final success rates, male compared with female patient groups ([2]; end of study, greatest differences at 1 mg TID)","Success rate (responder rate, adequate alleviation of IBS symptoms) ([2]; female patients, 1 mg TID) [%]","Success rate (responder rate, adequate alleviation of IBS symptoms) ([2]; female patients, 2 mg TID) [%]","Success rate (responder rate, adequate alleviation of IBS symptoms) ([2]; female patients, 8 mg TID) [%]","Success rate (responder rate, adequate alleviation of IBS symptoms) ([2]; female patients, 16 mg TID) [%]","Success rate (responder rate, adequate alleviation of IBS symptoms) ([2]; male patients, 1 mg TID) [%]","Success rate (responder rate, adequate alleviation of IBS symptoms) ([2]; male patients, 2 mg TID) [%]","Success rate (responder rate, adequate alleviation of IBS symptoms) ([2]; male patients, 8 mg TID) [%]","Success rate (responder rate, adequate alleviation of IBS symptoms) ([2]; male patients, 16 mg TID) [%]"
Cc1[nH]cnc1CN1CCc2c(c3ccccc3n2C)C1=O [alosetron],significantly better effectiveness on female IBS patients,no significant improvement in condition compared with the placebo group,,,,,,,,,,,,,,
"Cc1nccn1C[C@H]1CCc2c(c3cccc4c3n2CCC4)C1=O [Cilansetron, (R)-(−)-4,5,6,8,9,10-hexahydro-10-[(2-methyl-1H-imidazol-1-yl)methyl]-11H-pyrido-[3,2,1-jk]-carbazol-11-one]",,,62,53,55,63,respond to the treatment with cilansetron in all the dosages investigated,very similar for the male and female patient groups,69.6,60.3,56.9,61.4,51.3,63.0,56.3,58.6
